In US20250289812A1, “COMPOUND FOR TREATING THROMBOTIC DISEASES” (SHANGHAI INSTITUTE OF MATERIA MEDICA, CHINESE ACADEMY OF …, priority 2020, published 2025):

Columns and labels:
[1] = system: platelets on solid phase fibrinogen; experiment: Effect of compound on platelet stretching on solid phase fibrinogen; type: cell-based; details: 1 h, washed platelets, incubated 60 min at 37° C., read-out: Concentration range for compounds that inhibit platelet stretching on fibrinogen
Protocol: 1. Experimental method: Firstly, 50 μl fibrinogen (0.1M, diluted with pH 8.3 sodium bicarbonate, 20 μg/ml) was added to 96-well plate, and coated overnight at 4° C. After being washed by PBS for 3 times in the morning, sealed with bovine serum albumin (20 mg/ml) at 37° C. for 60 min, then 100 μl of washed platelet suspension was taken, and added into compounds in each group to make the final concentration 250 μM, and incubated at 37° C. for 60 min. 50 μl of incubated platelets were added to 96-well plate, adhered in a temperature box at 37° C. for 60 min, unadhered platelets were removed by PBS washing for 3 times, and adhered platelets were stably fixed with 4% paraformaldehyde, and washed with PBS for 3 times. Then the platelet membrane was perforated with 0.5% Triton X-100, and then the platelet was stained with 0.5 μg/ml phalloidin-rhodamine for 60 min at 37° C. and washed 3 times (10 min each) with PBS.
2. Experimental results and conclusions: The concentration of different compounds on platelet stretching on fibrinogen was shown in Table 3, and the inhibitory effect of some compounds on platelet stretching was shown in FIG. 2.

[2] = biological target: Src kinase SH3 domain protein (Homo sapiens (Human), UniProt P12931); experiment: Surface plasmon resonance (SPR) determination of dissociation constants with SH3 protein; type: binding; details: SH3 protein coupled to CM5 chip
Protocol: 1. Experimental method: Surface plasmon resonance test was carried out on BIACORE T200 instrument (GE Company). Fresh purified grade Src kinase SH3 domain protein (concentration 2 mg/ml) was diluted to 0.1 mg/ml with 10 mM CH3COONa (pH 4.2) and then SH3 protein was coupled to the CM5 chip by standard amino coupling methods. The compounds of the invention were diluted in a gradient using a buffer solution (20 mM Tris-HCl, PH 8.0, 100 mM NaCl) for 60 seconds and dissociated for 120 seconds at a flow rate of […], respectively. The changes in response values over time were recorded and analyzed by the BIA Evaluation Software (GE Healthcare) program to obtain the dissociation constants KD for the different compounds with SH3 protein.
2. Experimental results and conclusions: The dissociation constants KD of different compounds and SH3 protein were described in Table 2, and the surface plasmon resonance (SPR) experimental results of some compounds were shown in FIG. 1.

Src kinase SH3 domain protein, sequence (P12931 whole entry, looked up, the tested form may be a part): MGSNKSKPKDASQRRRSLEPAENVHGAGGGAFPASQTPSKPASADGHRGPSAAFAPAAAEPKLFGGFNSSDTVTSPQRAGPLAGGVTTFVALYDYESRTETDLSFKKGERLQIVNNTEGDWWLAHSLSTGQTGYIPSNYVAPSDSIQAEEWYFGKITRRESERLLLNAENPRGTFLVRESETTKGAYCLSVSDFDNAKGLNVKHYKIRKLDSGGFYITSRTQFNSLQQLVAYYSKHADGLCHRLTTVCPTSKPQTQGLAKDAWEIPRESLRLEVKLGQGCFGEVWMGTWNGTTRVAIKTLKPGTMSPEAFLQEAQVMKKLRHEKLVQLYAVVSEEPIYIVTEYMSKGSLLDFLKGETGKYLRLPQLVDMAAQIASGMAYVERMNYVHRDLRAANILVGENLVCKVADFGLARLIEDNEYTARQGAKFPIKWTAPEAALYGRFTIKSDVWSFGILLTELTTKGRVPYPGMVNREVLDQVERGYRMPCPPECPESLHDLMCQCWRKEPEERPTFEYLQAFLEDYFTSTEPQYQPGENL

| SMILES | Kd [2] [nM] | minimal effective concentration [1] [µM] |
| --- | --- | --- |
| CCOC(=O)c1c(CNC(=N)N)n(C)c2ncccc12 [SYY-C002] | 1000 to 10000 | 100 to 250 |
| COc1ccc2c(n1)c(C#N)c(CNC(=N)N)n2C [SYY-C004] | 1000 to 10000 | 100 to 250 |
| COc1ccc2c(n1)c(C(N)=O)c(CNC(=N)N)n2C [SYY-C005] | 1000 to 10000 | 100 to 250 |
| CCOC(=O)c1c(CNC(=N)N)n(C)c2cc(Br)c(OC3CCCC3)nc12 [SYY-C008] | 10000 to 100000 | 100 to 250 |
| CCOC(=O)c1c(CNC(=N)N)n(C)c2ncc(OC3CCCC3)cc12 [SYY-C010] | 10000 to 100000 | 10 to 100 |
| CCOC(=O)c1c(CNC(=N)N)n(C)c2ccccc12 [SYY-C016] | 10000 to 100000 | 10 to 100 |
| CCOC(=O)c1c(CNC(=N)N)n(C)c2nc(Cl)ccc12 [SYY-C020] | 1000 to 10000 | 100 to 250 |
| CCOC(=O)c1c(CNC(=N)N)n(C)c2cc(Br)ncc12 [SYY-C022] | 1000 to 10000 | 100 to 250 |
| CCOC(=O)c1c(CNC(=N)N)n(C)c2cc(-c3ccccc3)ccc12 [SYY-C023] | 10000 to 100000 | 10 to 100 |
| CCOC(=O)c1c(CNC(=N)N)n(C)c2cccnc12 [SYY-C026] | 1000 to 10000 | 100 to 250 |
| CCOC(=O)c1c(CNC(=N)N)n(-c2ccccc2)c2ccccc12 [SYY-C030] | 10000 to 100000 | 100 to 250 |
| CCOC(=O)c1c(CNC(=N)N)n(C)c2ccncc12 [SYY-C034] | 1000 to 10000 | 100 to 250 |
| CCOC(=O)c1c(CNC(=N)N)n(C)c2cnccc12 [SYY-C035] | 1000 to 10000 | 100 to 250 |
| COc1cnc2c(c1)c(C(N)=O)c(CNC(=N)N)n2C [SYY-C036] | – | 10 to 100 |
| CCOC(=O)c1c(CNC(=N)N)n(C)c2ccc(C3=CCCC3)cc12 [SYY-C037] | 1000 to 10000 | 100 to 250 |
| CCOC(=O)c1c(CNC(=N)N)n(C)c2cc(-c3ccc4ccccc4c3)ccc12 [SYY-C041] | 10000 to 100000 | 100 to 250 |
| CCOC(=O)c1c(CSC(=N)N)n(C)c2cc(-c3cccc4ccccc34)ccc12 [SYY-C042] | 1000 to 10000 | 10 to 100 |
| CCOC(=O)c1c(CSC(=N)N)n(C)c2cc(-c3ccc4ccccc4c3)ccc12 [SYY-C043] | 1000 to 10000 | 100 to 250 |

| SMILES | Kd [2] [nM] | minimal effective concentration [1] [µM] |
| --- | --- | --- |
| CCOC(=O)c1c(CNC(=N)N)n(C)c2cc(C3=CCCCCC3)ccc12 [SYY-C046] | 10000 to 100000 | 100 to 250 |
| CCOC(=O)c1c(CNC(=N)N)n(C)c2cc(C3=CCCCC3)ccc12 [SYY-C048] | 10000 to 100000 | 10 to 100 |
| CCOC(=O)c1c(CSC(=N)N)n(C)c2cc(C3=CCCCC3)ccc12 [SYY-C051] | 1000 to 10000 | 100 to 250 |
| CCOC(=O)c1c(CSC(=N)N)n(C)c2cc(C3=CCCCCC3)ccc12 [SYY-C052] | 1000 to 10000 | 100 to 250 |
| CCOC(=O)c1c(CSC(=N)N)n(C)c2cc(C3CCC(F)(F)CC3)ccc12 [SYY-C056] | 10000 to 100000 | 100 to 250 |
| CCOC(=O)c1c(CSC(=N)N)n(C)c2cc(OC3CCCC3)ccc12 [SYY-C058] | 10000 to 100000 | 100 to 250 |
| CCOC(=O)c1c(CSC(=N)N)n(C)c2cc(OC3CCCCC3)ccc12 [SYY-C061] | 10000 to 100000 | 10 to 100 |
| CCOC(=O)c1c(CSC(=N)N)n(C)c2ccc3ccccc3c12 [SYY-C062] | < 1000 | 10 to 100 |
| CCOC(=O)c1c(CSC(=N)N)n(C)c2cc(C3CC4CCC3C4)ccc12 (stereo not shown) [SYY-C063] | < 1000 | 10 to 100 |
| CCOC(=O)c1c(CNC(=N)N)n(C)c2ccc(-c3ccc4ccccc4c3)cc12 [SYY-C065] | 10000 to 100000 | 10 to 100 |
| CCOC(=O)c1c(CNC(=N)N)n(C)c2cc(-c3ccnc4ccccc34)ccc12 [SYY-C066] | < 1000 | 10 to 100 |
| CCOC(=O)c1c(CNC(=N)N)n(C)c2cc(-c3cccc4ncccc34)ccc12 [SYY-C067] | < 1000 | 10 to 100 |
| CCOC(=O)c1c(CNC(=N)N)n(C)c2cc(C3=CCCc4ccccc43)ccc12 [SYY-C068] | 1000 to 10000 | 100 to 250 |
| CCOC(=O)c1c(CNC(=N)N)n(C)c2cc(C3CC4CCC3C4)ccc12 (stereo not shown) [SYY-C069] | – | 10 to 100 |
| CCOC(=O)c1c(CNC(=N)N)n(C)c2ccc(-c3cccc4ccccc34)cc12 [SYY-C070] | < 1000 | 10 to 100 |
| CCOC(=O)c1c(CNC(=N)N)n(C)c2ccc(C3=CCCc4ccccc43)cc12 [SYY-C071] | < 1000 | 10 to 100 |
| CCOC(=O)c1c(CNC(=N)N)n(C)c2cc(-c3ccc(C)c4ccccc34)ccc12 [SYY-C072] | 1000 to 10000 | 10 to 100 |
| CCOC(=O)c1c(CNC(=N)N)n(C)c2cc(-c3cccc4ccc(F)cc34)ccc12 [SYY-C094] | < 1000 | – |

Continued, in another order:

| Kd [2] [nM] | SMILES | minimal effective concentration [1] [µM] |
| --- | --- | --- |
| < 1000 | CCOC(=O)c1c(CNC(=N)N)n(C)c2ccc(OC)nc12 [SYY-C001] | 10 to 100 |
| < 1000 | CCOC(=O)c1c(CNC(=N)N)n(C)c2ncc(OC)cc12 [SYY-C003] | 10 to 100 |
| < 1000 | CCOC(=O)c1c(CNC(=N)N)n(C)c2ccc(O)nc12 [SYY-C006] | 10 to 100 |
| < 1000 | CCOC(=O)c1c(CNC(=N)N)n(C)c2ccc(OC3CCCC3)nc12 [SYY-C007] | 10 to 100 |
| < 1000 | CCOC(=O)c1c(CNC(=N)N)n(C)c2ncc(O)cc12 [SYY-C009] | 10 to 100 |
| < 1000 | CCOC(=O)c1c(CNC(=N)N)n(C)c2cc(Br)cnc12 [SYY-C014] | 10 to 100 |
| < 1000 | CCOC(=O)c1c(CNC(=N)N)n(C)c2cc(Br)ccc12 [SYY-C015] | 10 to 100 |
| < 1000 | CCOC(=O)c1c(CNC(=N)N)n(C)c2ccc(Br)cc12 [SYY-C017] | 10 to 100 |
| < 1000 | CCOC(=O)c1c(CNC(=N)N)n(C)c2cc(C3=CCCC3)ccc12 [SYY-C024] | 10 to 100 |
| < 1000 | CCOC(=O)c1c(CNC(=N)N)n(C)c2cc(C3CCCC3)ccc12 [SYY-C025] | 10 to 100 |
| < 1000 | CCOC(=O)c1c(CNC(=N)N)n(C)c2ccc(-c3ccccc3)cc12 [SYY-C028] | 10 to 100 |
| < 1000 | CCOC(=O)c1c(CNC(=N)N)n(C)c2c1ccc1ccccc12 [SYY-C029] | 10 to 100 |
| < 1000 | CCOC(=O)c1c(CSC(=N)N)n(-c2ccccc2)c2ccccc12 [SYY-C031] | 10 to 100 |
| < 1000 | CCNC(=N)NCc1c(C(=O)OCC)c2nc(OC)ccc2n1C [SYY-C032] | 10 to 100 |
| < 1000 | CCOC(=O)c1c(CNC(=N)N)n(C)c2ccc(C3CCCC3)cc12 [SYY-C039] | 10 to 100 |
| < 1000 | CCOC(=O)c1c(CNC(=N)N)n(C)c2cc(-c3cccc4ccccc34)ccc12 [SYY-C040] | 10 to 100 |
| < 1000 | CCOC(=O)c1c(CSC(=N)N)n(C)c2cc(Cc3ccccc3)ccc12 [SYY-C045] | 10 to 100 |
| < 1000 | CCOC(=O)c1c(CNC(=N)N)n(C)c2cc(C3CCCCCC3)ccc12 [SYY-C047] | 10 to 100 |
| < 1000 | CCOC(=O)c1c(CNC(=N)N)n(C)c2cc(C3CCCCC3)ccc12 [SYY-C049] | 10 to 100 |
| < 1000 | CCOC(=O)c1c(CSC(=N)N)n(C)c2cc(C3CCCCC3)ccc12 [SYY-C050] | 10 to 100 |
| < 1000 | CCOC(=O)c1c(CSC(=N)N)n(C)c2cc(C3CCCCCC3)ccc12 [SYY-C053] | 10 to 100 |
| < 1000 | CCOC(=O)c1c(CNC(=N)N)n(C)c2cc(OC3CCCC3)ccc12 [SYY-C054] | 10 to 100 |
| < 1000 | CCOC(=O)c1c(CSC(=N)N)n(C)c2cc(C3CCCc4ccccc43)ccc12 (stereo not shown) [SYY-C055] | 10 to 100 |
| < 1000 | CCOC(=O)c1c(CNC(=N)N)n(C)c2cc(C3CCCc4ccccc43)ccc12 (stereo not shown) [SYY-C057] | 10 to 100 |
| < 1000 | CCOC(=O)c1c(CSC(=N)N)n(C)c2cc(Oc3ccccc3)ccc12 [SYY-C059] | 10 to 100 |
| < 1000 | CCOC(=O)c1c(CNC(=N)N)n(C)c2cc(C3CCC(F)(F)CC3)ccc12 [SYY-C060] | 10 to 100 |
